Tests used:
[1] = molecular target: isolated QPCTL (Homo sapiens, UniProt Q9NXS2); conditions: as disclosed in WO 2024/020517; read-out: Inhibitory activity on isolated QPCTL, IC50; cited from earlier work
[2] = molecular target: T1, QPCT (Homo sapiens, UniProt Q16769); assay: Assay A: biochemical QPCT activity assay (MALDI-TOF MS, CD47 peptide substrate); conditions: Table 3, prior art compounds, read-out: Inhibition of QPCT: IC50
T1 construct: purchased Origine (OriGene) TP700028
Outline: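 Enzyme and compound pre-incubated 10 min at 24° C in 20 mM Tris pH 7.5 with TCEP, BSA, Tween20, then 40 min with CD47 peptide (10 μM for QPCTL, 20 μM for QPCT). Pyroglutamate product/internal standard ratio by MALDI-TOF MS, normalized to controls; four-parameter logistic fit.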

[3] = Assay C: permeability in CACO-2 cells; type: in vitro ADME; conditions: human, Caco-2, pH 7.2
Outline: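 Caco-2 monolayers were grown 10–25 days on porous filter inserts. Compound was applied to the apical or basolateral donor side for A-B or B-A transport (3 filters), and the receiver was sampled for up to 2 h. Quantitation was by HPLC-MS/MS or scintillation; efflux ratio = B-A/A-B permeability.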

[4] = test system: murine hepatocytes; assay: Assay E: stability in murine hepatocytes; type: in vitro ADME, mouse; conditions: Table 13, prior art compounds, 1 μM, 5% species serum
Outline: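 Cryopreserved mouse hepatocytes, typically 1 Mio cells/mL in medium with 5% species serum, were dosed at 1 μM compound (0.05% DMSO) at 37 °C and sampled over 0–6 h. Parent decline was measured by HPLC-MS/MS and CLint calculated from dose/AUC, then scaled by well-stirred liver model.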

[5] = test system: CYP3A4 mRNA; assay: Assay D: CYP induction screening assay in primary human hepatocytes; type: in vitro ADME; conditions: Table 10, prior art compounds, 48 h
Outline: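 Single-donor cryopreserved human hepatocytes on collagen with Matrigel overlay were exposed to test compound at […] (0.1% DMSO) for 48 h, medium renewed at 24 h. CYP3A4 mRNA quantified by QuantiGene Plex/Luminex, normalised to geometric mean of RPL32, EIF4E2, GUSB and expressed relative to solvent control.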

T1 sequence (Q16769 29-361): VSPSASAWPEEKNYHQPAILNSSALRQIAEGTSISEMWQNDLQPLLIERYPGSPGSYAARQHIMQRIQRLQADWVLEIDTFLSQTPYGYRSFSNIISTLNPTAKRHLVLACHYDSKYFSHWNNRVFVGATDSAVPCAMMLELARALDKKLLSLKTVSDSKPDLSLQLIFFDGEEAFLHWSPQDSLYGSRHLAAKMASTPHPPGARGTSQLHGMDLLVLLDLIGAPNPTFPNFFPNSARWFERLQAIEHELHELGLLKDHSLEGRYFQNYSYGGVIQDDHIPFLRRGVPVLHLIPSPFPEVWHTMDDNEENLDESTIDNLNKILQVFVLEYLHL
Sequence of isolated QPCTL (Q9NXS2 whole entry): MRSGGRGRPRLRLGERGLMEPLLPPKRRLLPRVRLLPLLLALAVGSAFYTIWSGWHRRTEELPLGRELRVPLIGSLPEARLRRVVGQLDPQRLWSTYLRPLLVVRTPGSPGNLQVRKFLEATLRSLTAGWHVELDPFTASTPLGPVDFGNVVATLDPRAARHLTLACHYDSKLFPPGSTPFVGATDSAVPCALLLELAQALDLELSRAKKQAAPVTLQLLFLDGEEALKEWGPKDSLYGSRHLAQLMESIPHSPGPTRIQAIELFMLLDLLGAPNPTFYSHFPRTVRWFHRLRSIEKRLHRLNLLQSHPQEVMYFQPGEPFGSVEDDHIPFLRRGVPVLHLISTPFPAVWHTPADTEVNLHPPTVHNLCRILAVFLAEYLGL

Cn1cnnc1C1CCN(c2c(-c3ccnnc3)ccc(Cl)c2C#N)CC1 [Compound 33, reference compound]
IC50 [1]: < 100 nM | IC50 [2]: 2 nM | Papp A→B [3]: 0.2 ×10⁻⁶ cm/s | efflux ratio ([3]; read-out: Efflux Ratio): 45.3 | Mouse Hepatocyte Stability QH [4]: 45% | n-fold induction of CYP3A4 at 10 μM [5]: 1.7 n-fold
